The values that follow come from paper PMC6315173, “Characterization of the Apelin/Elabela Receptors (APLNR) in Chickens, Turtles, and Zebrafish: Identification of a Novel Apelin-Specific Receptor in Teleosts” (Frontiers in Endocrinology, 2018).

Assay [1] addresses T1, zebrafish APLNR2a (Danio rerio, UniProt Q7SZP9).
T1 construct: the open reading frame (ORF) of each APLNR was amplified from the animal; expressed in transfected cells; host or cells: HEK293
T1 sequence (Q7SZP9 1-362): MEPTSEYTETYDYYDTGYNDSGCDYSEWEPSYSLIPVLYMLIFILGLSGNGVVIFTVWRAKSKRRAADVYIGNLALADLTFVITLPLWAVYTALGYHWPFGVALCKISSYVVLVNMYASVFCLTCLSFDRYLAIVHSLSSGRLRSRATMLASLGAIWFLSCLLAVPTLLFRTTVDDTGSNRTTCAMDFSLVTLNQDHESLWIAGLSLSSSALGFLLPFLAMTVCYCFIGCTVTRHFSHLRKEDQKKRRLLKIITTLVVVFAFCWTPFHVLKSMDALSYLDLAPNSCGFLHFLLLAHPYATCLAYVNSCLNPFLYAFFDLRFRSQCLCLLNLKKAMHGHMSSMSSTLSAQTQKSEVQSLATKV
Nature of the assay: Western blot of ERK1/2 phosphorylation, HEK293 cells expressing zebrafish APLNR2a. It is filed as cell-based. The conditions noted are these: 100 nM, duplicates, time-dependent (5, 10, 20 min). The procedure:
HEK293 cells cultured in a 60-mm culture dish (Nunc, Rochester, NY, USA) with 70% confluence were transfected by 1 μg of receptor expression plasmid using jetPRIME reagent according to manufacturers' instruction (Polyplus Transfection, Illkirch, France). […] These cells were washed with cold PBS and lysed by RIPA Lysis Buffer (Roche, Basel, Switzerland) on ice. Western blot was used to examine ERK1/2 phosphorylation and β-actin levels in cell lysates.
Background: A western blot detects proteins with antibodies after separation by electrophoresis.

Assay [2] deals with tilapia APLNR3b (tiAPLNR3b). Nature of the assay: pGL3-CRE-luciferase reporter assay, HEK293 cells expressing tilapia APLNR3b. It is filed as cell-based, Nile tilapia (Oreochromis niloticus). The conditions noted are these: HEK293 cells transiently expressing tiAPLNR3b, inhibition of forskolin (5 μM)-stimulated pGL3-CRE-luciferase activity, 6 h, mean ± S.E. of 3 independent experiments, N = EC50 cannot be evaluated. The procedure:
(§1) In brief, HEK293 cells were cultured on a six-well plate and grown for 24 h before transfection. The cells were then transfected with a mixture containing 700 ng pGL3-CRE-Luciferase reporter construct (or pGL4-SRE-Luciferase reporter construct), 200 ng of receptor expression plasmid [or empty pcDNA3.1(+) vector as a negative control], and 2 μl jetPRIME (Polyplus Transfection, Illkirch, France) in 200 μl buffer. Twenty-four hour later, HEK293 cells were sub-cultured into a 96-well plate at 37°C for an additional 24 h before treatment. After removal of medium from the 96-well plate, the cells were treated with 100 μl peptide-containing medium (or peptide-free medium) for 6 h in the presence or absence of forskolin (5 μM). Finally, HEK293 cells were lysed with 1 × passive lysis buffer for luciferase assay (Promega, Madison, WI, USA) and the luciferase activity of the cell lysate was measured by a Multimode microplate Reader (TriStar LB 941, EG&G Berthold, Germany) according to the manufacturer's instruction.
(§2) The luciferase activity in each treatment group was expressed as the relative fold changes as compared with their respective control groups. The data were analyzed by non-linear regression followed by one-way ANOVA using GraphPad Prism 5 (GraphPad, San Diego, CA, USA). To validate the results, all experiments were repeated at least twice.
(In general: In a reporter assay the amount or activity of a reporter protein is the signal.)

For assay [3], the system named is zebrafish APLNR3a (zfAPLNR3a). Nature of the assay: pGL3-CRE-luciferase reporter assay, HEK293 cells expressing zebrafish APLNR3a. It is filed as cell-based, zebrafish (Danio rerio). The conditions noted are these: HEK293 cells transiently expressing zfAPLNR3a, inhibition of forskolin (5 μM)-stimulated pGL3-CRE-luciferase activity, 6 h, mean ± S.E. of 3 independent experiments, N = EC50 cannot be evaluated. How it is done: as §1, §2

Assay [4] deals with T2, zebrafish APLNR2a (zfAPLNR2a) (Danio rerio, UniProt Q7SZP9).
T2 construct: the open reading frame (ORF) of each APLNR was amplified from the animal; expressed in transfected cells; host or cells: HEK293
T2 sequence (Q7SZP9 1-362): T1 sequence (Q7SZP9 1-362)
Nature of the assay: pGL3-CRE-luciferase reporter assay, HEK293 cells expressing zebrafish APLNR2a. The conditions noted are these: SEM. The class given is cell-based. The procedure:
as §1, §2

The test system of assay [5] is zebrafish APLNR3a. Nature of the assay: Western blot of ERK1/2 phosphorylation, HEK293 cells expressing zebrafish APLNR3a. The class given is cell-based, zebrafish (Danio rerio). The procedure: HEK293 cells cultured in a 60-mm culture dish (Nunc, Rochester, NY, USA) with 70% confluence were transfected by 1 μg of receptor expression plasmid using jetPRIME reagent according to manufacturers' instruction (Polyplus Transfection, Illkirch, France). After the 24-h transfection, HEK293 cells were sub-cultured into a 24-well plate, serum-deprived for 12 h and then treated by peptides for 10 min. These cells were washed with cold PBS and lysed by RIPA Lysis Buffer (Roche, Basel, Switzerland) on ice. Western blot was used to examine ERK1/2 phosphorylation and β-actin levels in cell lysates.

The target of assay [6] is T3, zebrafish APLNR2b (zfAPLNR2b) (Danio rerio, UniProt A0T2N3).
T3 construct: the open reading frame (ORF) of each APLNR was amplified from the animal; expressed in transfected cells; host or cells: HEK293
T3 sequence (A0T2N3 1-359): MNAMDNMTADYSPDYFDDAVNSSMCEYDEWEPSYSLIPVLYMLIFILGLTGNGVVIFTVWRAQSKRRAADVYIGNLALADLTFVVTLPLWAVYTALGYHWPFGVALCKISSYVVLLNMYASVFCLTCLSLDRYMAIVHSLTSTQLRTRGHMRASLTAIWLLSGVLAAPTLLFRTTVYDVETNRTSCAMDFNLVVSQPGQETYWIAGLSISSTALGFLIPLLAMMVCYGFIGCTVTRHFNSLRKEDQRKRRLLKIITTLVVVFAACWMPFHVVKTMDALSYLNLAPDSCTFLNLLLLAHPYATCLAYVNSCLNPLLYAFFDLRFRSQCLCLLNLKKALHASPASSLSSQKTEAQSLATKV
Nature of the assay: pGL3-CRE-luciferase reporter assay, HEK293 cells expressing zebrafish APLNR2b. The class given is cell-based. The conditions noted are these: SEM. The procedure:
as §1, §2

Residues, ends and D or L forms follow the SMILES beside them. No end group written: not given here.

As to `CC(C)C[C@H](NC(=O)[C@H](CC(N)=O)NC(=O)[C@H](CC(C)C)NC(=O)[C@H](Cc1ccccc1)NC(=O)[C@H](CC(=O)O)NC(=O)[C@H](Cc1c[nH]cn1)NC(=O)[C@H](CCCCN)NC(=O)[C@@H](NC(=O)CNC(=O)[C@H](Cc1c[nH]cn1)NC(=O)[C@H](CCCCN)NC(=O)[C@@H](N)CC(=O)O)[C@@H](C)O)C(=O)N[C@@H](CCCNC(=N)N)C(=O)N[C@@H](CCCNC(=N)N)C(=O)N[C@@H](CCCCN)C(=O)N[C@@H](Cc1ccc(O)cc1)C(=O)N[C@@H](CCCNC(=N)N)C(=O)N[C@@H](CCCNC(=N)N)C(=O)N[C@@H](Cc1c[nH]cn1)C(=O)N[C@@H](CC(N)=O)C(=O)N[C@@H](CS)C(=O)N1CCC[C@H]1C(=O)N[C@@H](CCCCN)C(=O)N[C@@H](CCCCN)C(=O)N[C@@H](CCCNC(=N)N)C(=O)N[C@@H](CS)C(=O)N[C@@H](CC(C)C)C(=O)N1CCC[C@H]1C(=O)N[C@@H](CC(C)C)C(=O)N[C@@H](Cc1c[nH]cn1)C(=O)N[C@@H](CO)C(=O)N[C@@H](CCCNC(=N)N)C(=O)N[C@H](C(=O)N1CCC[C@H]1C(=O)N[C@@H](Cc1ccccc1)C(=O)N1CCC[C@H]1C(=O)O)C(C)C` [zfELA-36] (H-DKHGTKHDFLNLRRKYRRHNCPKKRCLPLHSRVPFP-OH; N-terminus and C-terminus assumed), the “phosphorylation of ERK1/2, Western blot” value in assay [1] is “can enhance phosphorylation of ERK1/2”. For the same compound, the half-maximal effective concentration (EC50) (in general, the midpoint of the concentration-response curve) was more than 100 nM in assay [2], more than 100 nM in assay [3], 1.61 ± 0.8 nM in assay [4] and 1.29 ± 0.9 nM in assay [6]. In assay [5], the “ERK1/2 phosphorylation, Western blot” value is reported as “not ELA-36”.

As for “TPLRQNPARAGRSQRPAGWRRRRPRPRLSHKGPMPF [zfApelin-36]”, the “phosphorylation of ERK1/2, Western blot” value in assay [1] is on record as “can enhance phosphorylation of ERK1/2”. For the same compound, the EC50 in assay [2] (SEM) came to 0.77 ± 0.24 nM; in assay [3] (SEM) it was 0.45 ± 0.12 nM; in assay [4], 0.89 ± 0.44 nM; in assay [6], 0.51 ± 0.31 nM. Also, in assay [5], the “ERK1/2 phosphorylation, Western blot” value is “can induce ERK1/2 phosphorylation”.
